Earlier results in PMC3547157 (Journal of the American Chemical Society, 2012).

Molecular target: T1, COX-2 enzyme (Homo sapiens, UniProt P35354)
T1 sequence (P35354 18-604): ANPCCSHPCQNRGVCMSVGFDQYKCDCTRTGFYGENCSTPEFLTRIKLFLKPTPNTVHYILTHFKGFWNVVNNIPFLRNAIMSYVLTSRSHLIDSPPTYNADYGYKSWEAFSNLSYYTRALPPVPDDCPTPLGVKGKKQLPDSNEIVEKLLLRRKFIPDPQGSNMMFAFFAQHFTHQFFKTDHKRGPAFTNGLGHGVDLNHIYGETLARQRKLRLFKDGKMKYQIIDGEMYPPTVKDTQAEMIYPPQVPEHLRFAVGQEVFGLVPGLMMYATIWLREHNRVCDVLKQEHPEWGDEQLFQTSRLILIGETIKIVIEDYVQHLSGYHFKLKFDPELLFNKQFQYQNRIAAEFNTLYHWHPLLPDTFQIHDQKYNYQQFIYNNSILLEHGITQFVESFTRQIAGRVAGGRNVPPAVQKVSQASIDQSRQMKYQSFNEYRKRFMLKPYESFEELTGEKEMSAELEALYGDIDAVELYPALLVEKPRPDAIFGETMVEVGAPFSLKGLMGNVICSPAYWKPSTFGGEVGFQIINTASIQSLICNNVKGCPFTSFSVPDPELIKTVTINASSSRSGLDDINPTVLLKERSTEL
Conditions: read-out: reported IC50 of naproxen to COX-2; literature values

COc1ccc2cc([C@H](C)C(=O)O)ccc2c1 [naproxen]
IC50: 2 to 28.4 µM
